Assay results taken from patent US7879821B2, “Method for modulating inflammatory responses by altering plasma lipid levels” (University of Medicine and Dentistry of New Jersey, priority 2006, dated 2011).
Entries after “also recorded” stand apart in the source; their conditions may differ.

Columns and labels:
TRPC1 = experiment: Western blotting for TRPC1 in PMN raft fractions; assay type: cell-based, human; settings: for global TRPC1 protein expression in whole cell lysates: 10 minutes exposure
Procedure: TRPC1 is a prototypic calcium channel protein of the TRP family. PMN express multiple TRPC proteins that are known to traffic to the cell membrane during Ca entry. We therefore studied TRPC1 raft-trafficking in response to cholesterol as an initial proof of principle that raft cholesterol concentration might regulate the distribution of multiple Ca^2+-influx related proteins to or from the cell membrane. We analyzed 20 μl of each gradient fraction by electrophoresis on a SDS gel followed by Western blotting for TRPC1 protein. The primary rabbit anti-human TRPC1 antibody (Santa Cruz) was used at 1:1,600 dilution. Secondary goat anti-rabbit antibody was used at 1:16,000 dilution. An ECL Western blotting detection kit was used to develop the blots which were imaged as above.
We therefore used Western blots to probe for TRPC1 in fractions 2-4 of pooled normal volunteer PMN fractionated with or without prior incubation in 10 μg/mL cholesterol (FIG. 26).
Subsequently, we sought to determine the source of the increased TRPC1 in the lipid raft fractions. Whole cell lysates from cholesterol treated and untreated cells were compared (not shown). […] Since the events leading to calcium entry are very rapid, later time points were not studied. Finally, we assayed TRPC1 in individual raft fractions from concurrently treated and analyzed PMN specimens (FIG. 27). […] Thus a redistribution of TRPC1 occurs in response to cholesterol treatment which appears to reflect trafficking of the protein to raft fractions rather than de novo synthesis.

PMN [1] = experiment: Thapsigargin (TG) initiated Ca2+ entry in PMN; assay type: cell-based, human
Procedure: (§1) PMN were suspended in HEPES buffer with 1 mM CaCl2 and 0.1% BSA and incubated with 2 μg/mL fura-2AM for 30 minutes in the dark at 37° C. Cells were divided into aliquots (2×10^6 PMN) and placed on ice in the dark. Prior to study, samples were warmed to 37°, centrifuged (4500 RPM, 5 sec) and supernatants removed. Pellets were resuspended in 200 μl of BSA-free and ‘nominally calcium-free’ HEPES buffer (with 0.3 mM EGTA) and finally injected into cuvettes containing 2.8 mL of the same buffer for study. Intracellular free calcium concentration ([Ca2+]i) was determined from the fluorescence at 505 nm using 340/380 nm dual wavelength excitation. (Fluoromax-2, Jobin-SPEX, Edison, N.J.).
Since cholesterol had no discernable effect on ER Ca^2+ store release in response to PAF we examined the possibility that could play a direct role in the regulation of store-operated Ca^2+ entry; a Ca^2+ entry mechanism that is completely independent of GPCR activation. To study this we used thapsigargin (TG). TG blocks ER Ca^2+ ATPase pumps, thus depleting ER Ca^2+ stores directly and causing calcium entry independent of GPCR activation.

PMN lipid raft fractions = experiment: Cholesterol content of PMN lipid raft fractions isolated by ultracentrifugation; assay type: cell-based, human; settings: for ratio of cholesterol to protein / cholesterol concentration in the lowest density raft fractions: PMN pretreated, micromolar concentrations, absence of albumin; for change of cholesterol in raft fractions versus higher density fractions: cholesterol 10 μg/ml 10 minutes or MβCD 10 μM/10 min
Procedure: Lipid raft fractions were isolated by ultracentrifugation from PMN treated with S1P, cholesterol or buffer only (“none”). […] After isolation from 2-3 normal volunteer donors, 5×10^7 PMN were divided into aliquots. Aliquots were treated at 37° C. with 10 μg/ml water-soluble cholesterol for 10 minutes, MβCD (10 μM/10 min) or with vehicle. All steps thereafter were performed on ice. Cells were spun and pellets resuspended in 1 ml of base buffer (20 mM Tris-HCl pH 7.8, 250 mM Sucrose, 1 mM CaCl2 and 1 mM MgCl2) containing protease inhibitor and 50 μg/ml calpain inhibitor 1. Cells were disrupted by passage through a 22 g 3″ needle 10 times. Fragmented cells were sonicated 5×20 s, cooling the cells on ice between sonications. […] The cell pellets were resuspended in 1 ml base buffer with inhibitors and the sonication repeated. The two postnuclear supernatants were combined and an equal volume of 50% Optiprep added. […] Tubes were then centrifuged (52,000 g; 3 hours) and serial 670 μl fractions were collected from the top of the tube using careful pipetting. Protein in each fraction was assayed by micro BCA assay method (Pierce, Rockford Ill.). Cholesterol was assayed using an Amplex Red cholesterol assay kit (Molecular Probes). Alkaline phosphatase was assayed using p-nitrophenyl phosphate as substrate. […] No detergents were used in raft preparation.

human neutrophils (PMN) = experiment: Cholesterol-mediated Ca2+ influx in human PMN (fura-2 calcium spectrofluorometry); assay type: cell-based; settings: for effect on cholesterol mediated Ca2+ influx (actin reorganization): Caly A 50 nM in cuvette, Cyto D pretreatment 2.5 uM 15 min, cholesterol 10 ug/ml; for effect of calcium channel blocker on cholesterol-mediated PMN calcium entry: dose response curves not shown
PMN [2] = experiment: PMN calcium entry responses to S1P; assay type: cell-based, human
Procedure: To evaluate whether Ca^2+-entry responses to S1P were raft dependent, we then disrupted lipid rafts using MBCD to bind raft cholesterol.
as §1

PMN lipid rafts (GM-1) = experiment: Immunofluorescent microscopy for GM-1 (FITC-CTB) in PMN rafts; assay type: cell-based, human; settings: free cholesterol 10 μg/mL
PMN [3] = experiment: fMLP-mediated Ca2+ entry in PMN; assay type: cell-based, human
Procedure: as §1
To confirm that the effects of cholesterol on GPCR mediated Ca^2+ entry were generalized and not restricted to PAF we evaluated the effects of cholesterol on fMLP-mediated Ca^2+ entry. Consistent with PAF, fMLP-linked Ca^2+ entry responses were suppressed by MβCD and augmented by cholesterol (FIG. 23, upper panel).

PMN [4] = experiment: Calcium-entry dependent respiratory burst (RB) initiated by fMLP/Tg in PMN; assay type: cell-based, human; settings: for effect of cholesterol depletion on fMLP/Tg RB: MBCD 10 mM/10 min, fMLP/TG 100 nM/1 uM
Procedure: The graph represents Vmax slopes values. n=2 for Blank, Cholesterol Blank and Cholesterol alone. The others are n=6.
RB was assessed in PMN suspensions. Briefly, 2×10^6 PMN were suspended in 3 ml of HEPES buffer with 0.1% BSA and 15 ng/ml of 1,2,3-dihydrorhodamine (DHR) added. Cells were studied at 37° C. with constant stirring using excitation at 488 nm and emission at 530 nm. RB was allowed to become linear and achieve maximal reaction rate (Vmax). The fluorescent intensity (FI) curve of oxidized DHR was compiled for 60 seconds during Vmax. Curve-fitting analysis was performed over the linear portion (Sigma-Plot 4.0, SPSS, Chicago, Ill.). Vmax was assessed as the first derivative of the fluorescent intensity in counts per second (CPS).
Next we evaluated the functional relevance of cholesterol-mediated Ca^2+ influx. We studied a PMN model where RB depends entirely on extra-cellular calcium entry to see if RB would vary with the incorporation of cholesterol into rafts.
To do this, PMN were pre-incubated with MβCD, with vehicle or with varying concentrations of cholesterol to vary membrane raft cholesterol content (FIG. 21B). After the pre-incubation, RB was initiated using fMLP/Tg.

human PMN = experiment: PAF mediated SOCE in human PMN; assay type: cell-based
PMN [5] = experiment: Store-operated calcium entry (SOCE) initiated by fMLP and Tg in PMN; assay type: cell-based, human
Procedure: We hypothesized that calcium-entry dependent functions like RB would depend upon S1P synthesis and subsequent S1P interactions with rafts. Thus we developed a calcium-entry dependent RB model where Ca entry was manipulated by sphingosine kinase (SphK) inhibition, which inhibits S1P synthesis in response to internal calcium store release. […] Note that the vast majority of cell [Ca^2+] increases are due to calcium influx on re-calcifying the medium.
as §1

[6] = fMLP/Tg RB after pre-incubation

Compound: CC(C)CCC[C@@H](C)[C@H]1CC[C@H]2[C@@H]3CC=C4C[C@@H](O)CC[C@]4(C)[C@H]3CC[C@]12C [cholesterol]
- global TRPC1 protein expression in whole cell lysates (TRPC1): No differences in global TRPC1 protein expression
- TRPC1 protein in membrane lipid raft fractions (TRPC1; pre-incubation in 10 μg/mL cholesterol): increases the amount of TRPC1 protein; also recorded: redistribution of the TRPC1 signal from higher density fractions into the raft fractions
- reversal of MβCD inhibition of TG Ca2+ entry by cholesterol re-addition (PMN [1]): immediately reversed and even overcome
- ratio of cholesterol to protein / cholesterol concentration in the lowest density raft fractions (PMN lipid raft fractions): more than doubles
- change of cholesterol in raft fractions versus higher density fractions (PMN lipid raft fractions): incorporated preferentially into the low density fractions
- effect of cholesterol concentrations above 10 μg/mL on PMN Ca2+ uptake (human neutrophils (PMN); above 10 μg/mL, direct stimulation and combination with S1P): suppress PMN Ca^2+ uptake
- direct calcium entry caused by cholesterol at re-addition dose (human neutrophils (PMN); cholesterol 3 ug/ml final): does not itself cause calcium entry
- direct effect of cholesterol on calcium entry into human PMN (human neutrophils (PMN); free cholesterol, albumin-free media): caused Ca entry without any antecedent release of calcium stores; also recorded: potent, dose-dependent activator; also recorded: direct dose-related response
- effect of cholesterol on patient PMN calcium entry response to S1P (PMN [2]; injured patients' PMN, cholesterol 30 ug/ml, n=8 PMN isolates): restored to healthy volunteer levels; also recorded: exceed basal levels
- reversal of MβCD effect on S1P calcium entry by cholesterol replenishment (PMN [2]; n=3): reversible; also recorded: reversal of the MβCD effect
- membrane GM-1 binding and raft coalescence (PMN lipid rafts (GM-1)): increased membrane GM-1 available for binding
- effect on fMLP-linked Ca2+ entry responses (PMN [3]): augmented
- effect of very high cholesterol concentrations on fMLP-mediated Ca2+ entry (PMN [3]; very high cholesterol concentrations): suppressed calcium entry
- rescue of RB by cholesterol in MBCD treated neutrophils (PMN [4]; cholesterol 30 ug/ml): rescued RB from MβCD inhibition; also recorded: significantly rescued that RB
- external cholesterol concentration yielding optimal PMN oxidant production (PMN [4]; [6]): 10 µg/mL
- external cholesterol concentration yielding optimal PMN oxidant production (molar) (PMN [4]; [6]): ~25 µM
- effect of increasing (high) cholesterol concentrations on RB (PMN [4]; pre-incubation, higher concentrations (FIG. 21B columns 6-7)): decreased the degree of respiratory burst
- effect of lower cholesterol concentrations on RB (PMN [4]; pre-incubation, lower concentrations (FIG. 21B columns 3-5)): dose-dependent augmentation of RB
- effect on release of Ca2+ from cell stores (PAF) (human PMN; PAF 100 nM): no effect upon Ca^2+ store mobilization
- effect of cholesterol present in cuvette on PAF Ca2+ entry in normal cells (human PMN; normal PMN, brief exposure): increased Ca^2+ entry
- rescue of PAF Ca2+ entry by cholesterol after MβCD (human PMN; small amounts of cholesterol (3 ug/ml final)): rescued Ca^2+entry

Compound: methyl-β cyclodextrin [MβCD]
- global TRPC1 protein expression in whole cell lysates (TRPC1): No differences in global TRPC1 protein expression
- effect on TG initiated Ca2+ entry (PMN [1]): markedly inhibited
- change of cholesterol in raft fractions versus higher density fractions (PMN lipid raft fractions): removed cholesterol from raft fractions
- effect of MβCD on patient PMN Ca2+ entry responses to S1P (PMN [2]; injured patients' PMN): further suppressed
- effect of raft disruption on PMN calcium entry responses to S1P (PMN [2]; n=3): completely blocks calcium entry
- effect of raft disruption on PMN calcium entry responses to S1P (PMN [2]; n=3, listed as MBCD): completely blocked
- effect on fMLP-linked Ca2+ entry responses (PMN [3]): suppressed
- effect of cholesterol depletion on fMLP/Tg RB (PMN [4]): inhibited RB; also recorded: clear suppression of RB; also recorded: markedly suppressed RB responses
- effect of cholesterol depletion on fMLP/Tg RB (PMN [4]; listed as MBCD): blocks RB; also recorded: attenuated
- effect on release of Ca2+ from cell stores (PAF) (human PMN; PAF 100 nM): no effect whatsoever
- effect on PAF-initiated Ca2+ entry after cholesterol sequestration (human PMN; PAF 100 nM, MBCD 10 mM 10 minutes): blocked

Compound: CCCCCCCCCCCCC/C=C/[C@@H](O)[C@@H](N)COP(=O)(O)O [S1P, sphingosine 1-phosphate, reference compound]
- ratio of cholesterol to protein / cholesterol concentration in the lowest density raft fractions (PMN lipid raft fractions): increases in cholesterol concentration
- ratio of cholesterol to protein / cholesterol concentration in the lowest density raft fractions (PMN lipid raft fractions; listed as SIP): even greater increases in cholesterol concentration
- reversal of SKI-2 inhibition of SOCE by exogenous S1P (PMN [5]; 5 M S1P, 30 μM SKI-2): totally reversed; also recorded: reverses 30 μM SKI-2 inhibition
- rescue of RB after SKI-2 inhibition (PMN [4]; S1P 5 uM after SKI-2 30 uM): rescue of RB
- restoration of RB by S1P after MβCD cholesterol depletion (PMN [4]; n=4-6): restored RB to control levels

Compound: C=C1[C@@H](C)[C@H]2[C@H](Cc3ccccc3)NC(=O)[C@]23[C@H](OC(C)=O)/C=C/[C@@](C)(O)C(=O)[C@@H](C)C/C=C/[C@H]3[C@@H]1O [CytoD, Cytochalasin D]
- effect on cholesterol mediated Ca2+ influx (actin reorganization) (human neutrophils (PMN)): reversed the inhibition

Compound: Oc1ccc(Nc2nc(-c3ccc(Cl)cc3)cs2)cc1 [SKI-2]
- effect on SOCE initiated by fMLP and Tg (PMN [5]; fMLP 100 nM, Tg 1 uM): inhibited; also recorded: suppressing SOCE
- effect of SphK inhibition on fMLP/Tg induced RB (PMN [4]; 30 uM, n=4): blocked fMLP/Tg induced RB down to background levels

Compound: COc1ccc(CCN(C)CCCC(C#N)(c2ccc(OC)c(OC)c2)C(C)C)cc1OC (centres unmarked) [verapamil]
- effect of calcium channel blocker on cholesterol-mediated PMN calcium entry (human neutrophils (PMN); human PMN): not inhibited; also recorded: no effect
- effect of calcium channel blocker on cholesterol-mediated PMN calcium entry (human neutrophils (PMN); human PMN, listed as VER): no effect at any concentration

Compound: COC[C@@H]([C@H](O)[C@H](O)C(=O)NCC[C@H](C)c1nc(/C=C/C[C@@H]2O[C@]3(C[C@@H](O)[C@@H]2C)O[C@H]([C@H](C[C@H](O)[C@H](C)[C@H](O)[C@H](C)/C=C(C)/C(C)=C/C=C/C(C)=C\C#N)OC)[C@H](OP(=O)(O)O)C3(C)C)co1)N(C)C [CalyA, Calyculin A]
- effect on cholesterol mediated Ca2+ influx (actin reorganization) (human neutrophils (PMN)): abolished

Compound: [La+3] [La^3+, lanthanum]
- inhibition of cholesterol mediated PMN Ca2+ influx by lanthanum (human neutrophils (PMN); 1 mM): inhibited; also recorded: almost totally inhibits

Compound: COc1ccc(CCCOC(Cn2ccnc2)c2ccc(OC)cc2)cc1 (centres unmarked) [SKF96365]
- IC50 (human neutrophils (PMN); Neutrophil, human PMN, 3-4 experiments per condition, read-out: IC50 for block of cholesterol-mediated PMN calcium entry): ~30 µM
- effect of calcium channel blocker on cholesterol-mediated PMN calcium entry (human neutrophils (PMN); human PMN): inhibited
- effect of calcium channel blocker on cholesterol-mediated PMN calcium entry (human neutrophils (PMN); human PMN, listed as SKF): quantitatively inhibited
